These are literature values, as cited in patent publication US20060172006A1, “Sustained-release tramadol formulations with 24-hour clinical efficacy” (priority 2003, published 2006).

Structures can show the parent of a compound that is named as a salt.

The conditions of the data set: human, in vivo.

Consider `COc1cccc(C2(O)CCCCC2CN(C)C)c1` (stereo not shown) [tramadol HCl, Tramadol hydrochloride], for which the “Estimated incidence of seizures in patients” value is given as “less than 1%”.
